According to paper PMC10687080, “Resurrecting ancestral antibiotics: unveiling the origins of modern lipid II targeting glycopeptides” (Nature Communications, 2023):

Experiments:
ANC1 = molecular target: T1, ANC1 (synthetic construct, UniProt Z9HSK4K2R8); assay: NADH coupled pyrophosphate release assay; assay type: biochemical; conditions: 1 mM substrate, 0.5 mM ATP, 10 mM MgCl2, pH 7.4, 30 °C
T1 construct: resurrected ancestral A-domain, N-terminal His6-SUMO, C-terminal STREP tag, co-expressed with Tcp13 in E. coli BL21(DE3); with MbtH-like protein Tcp13 (Actinoplanes teichomyceticus)

ANC2 (ANC2int) = molecular target: T2, ANC2 (ANC2int) (synthetic construct, UniProt Z9RCC4OUL6); assay: NADH coupled pyrophosphate release assay; assay type: biochemical; conditions: 1 mM substrate, 0.5 mM ATP, 10 mM MgCl2, pH 7.4, 30 °C
T2 construct: resurrected ancestral A-domain, N-terminal His6-SUMO, C-terminal STREP tag, co-expressed with Tcp13 in E. coli BL21(DE3); with MbtH-like protein Tcp13 (Actinoplanes teichomyceticus)

Row | SMILES | NADH coupled pyrophosphate release assay (ANC1) | NADH coupled pyrophosphate release assay (ANC2 (ANC2int))
1 | N[C@@H](C(=O)O)c1ccc(O)cc1 [D-Hpg] | with a fourfold preference for the L-form | –
2 | CC(C)C[C@@H](N)C(=O)O [D-Leu] | – | ANC2 and ANC3 were both selective for Leu
3 | CC(C)C[C@H](N)C(=O)O [L-Leu] | – | ANC2 and ANC3 were both selective for Leu
